Results on 8 molecules are retold here after US8901118B2, “Compounds and methods for kinase modulation, and indications therefor” (Plexxikon Inc., priority 2010, dated 2014).

One data set deals with c-Kit kinase (Homo sapiens, UniProt P10721). The data set can be described thus: c-Kit kinase biochemical activity assay (AlphaScreen, biotin-(E4Y)10 phosphorylation). Particulars: 100 μM ATP; read-out: Biochemical Inhibition IC50 Kit. How it is done:
Assays for biochemical and cell based activity are known in the art, for example, U.S. Patent Application Publication Number 2009/0076046, the disclosure of which is hereby incorporated by reference as it relates to such assays. For example, in one assay the biochemical activity IC50 values are determined with respect to inhibition of c-Kit kinase activity, where inhibition of phosphorylation of a peptide substrate is measured as a function of compound concentration. Compounds to be tested are dissolved in DMSO to a concentration of 20 mM. These are diluted 30 μL into 120 μL of DMSO (4 mM) and 1 μL is added to an assay plate. These are then serially diluted […] (50 μL to 100 μL DMSO) for a total of 8 points. Plates are prepared such that each kinase reaction is 20 μL in 1× kinase buffer (25 mM HEPES, pH 7.5, 2 mM MgCl2, 2 mM MnCl2, 0.01% Tween-20, 1 mM DTT, 0.01% BSA), 5% DMSO and 100 μM ATP. Substrate is 30 nM biotin-(E4Y) 10 (Millipore). C-kit kinase (obtained from Millipore (#14-559) or is prepared as described in U.S. Patent Application Publication Number 2009/0076046, the disclosure of which is hereby incorporated by reference as it relates to this assay) is at 0.75 ng per sample. After incubation of the kinase reaction for 1 hour at room temperature, 5 μL of donor beads (Streptavidin coated beads (Perkin Elmer Life Science) final concentration 10 μg/mL) in stop buffer (25 mM Hepes pH 7.5, 100 mM EDTA, 0.01% BSA) is added, the sample is mixed and incubated for 20 minutes at room temperature before adding 5 μL of acceptor beads (PY20 coated beads (Perkin Elmer Life Science) final concentration 10 μg/mL) in stop buffer. The samples are incubated for 60 minutes at room temperature and the signal per well is read on Envision reader. Phosphorylated substrate results in binding of the PY20 antibody and association of the donor and acceptor beads such that signal correlates with kinase activity. The signal vs. compound concentration is used to determine the IC50.
For orientation: Bead proximity is the source of the signal in Alpha formats.

A short description of data set [1]: Relative solubility by turbidity in aqueous buffers (pH 1.5, 4.5, 6.8, 7.4). Particulars: for turbidity threshold (L, M, H) 1.4: pH 1.5 (SGF); for turbidity threshold (L, M, H) 4.5: pH 4.5 (SIF); for turbidity threshold (L, M, H) 6.8: pH 6.8 (SIF); for turbidity threshold (L, M, H) 7.4: pH 7.4 (HEPES). The data set is classed as physicochemical. How it is done:
As an indication of relative solubility, the turbidity of compounds in aqueous solutions is assessed. To assess possible compound properties in different physiological compartments, such as stomach, intestine, and blood, a series of aqueous buffers with varying pH is used. Thus each compound is diluted into four different physiologically relevant buffers and solution turbidity is measured by spectrophotometry.
Compounds are dissolved at a concentration of 25 mM in dimethyl sulfoxide, then serially diluted 1:1 into a 96 well plate, diluting 10 times in pure dimethyl sulfoxide, with the final well of each row a dimethyl sulfoxide blank. In an assay plate, 99 μL of appropriate buffer is added to each well, and 1 μL of each sample dilution is added to the buffer, achieving a range of final total concentrations in aqueous solutions having different pH. The buffers used are Simulated Gastric Fluid (SGF-pH 1.5) 0.5M NaCl, pH 1.5; Simulated Intestinal fluid (SIF-pH 4.5 and pH 6.8) 0.05M NaH2PO4, pH 4.5 and 6.8; and Hepes Buffer (HEPES-pH 7.4) 10 mM HEPES, 150 mM NaCl, pH 7.4. Control compounds pyrene, estriol and propranolol HCl are also assessed. Plates are spun and then mixed for 1 minute, and the absorbance is read using a Tecan Safire II to read wavelengths in the visible range (490, 535, and 650 nm) at four locations per well, reflecting the degree of turbidity present. The average optical density for each wavelength in each well is graphed vs. compound concentration, and the concentration at which the curve crosses a threshold O.D. of 0.01 for each wavelength is reported as the endpoint turbidity assay result. The average of the three wavelengths is used to compare turbidity of compounds.

For the next data set, the target named is CYP3A4(BQ) (Homo sapiens, UniProt P08684). The data set can be described thus: CYP3A4(BQ) inhibition. Type of data set: in vitro ADME. Particulars: CYP3A4, substrate BQ; read-out: Cyp IC50 3A4(BQ). The protocol:
CYP (Cytochrome P450) enzymes are the major drug metabolizing enzymes present in the liver. The inhibition of CYP enzyme activity (IC50) for each of CYP1A2, CYP2C19, CYP2C9, CYP2D6, CYP3A4(BFC) and CYP3A4(BQ) is determined for compounds, where inhibition of metabolism of a known substrate leads to a decrease in the fluorescence of the metabolized product. The fluorescence of the product is monitored as a function of compound concentration. Compounds are dissolved in DMSO to a concentration of 100 mM. These are diluted 1 μL into 82 μL of acetonitrile. An 11 μL aliquot of this solution is then added to 204 μL of cofactor mix (1.3% NADPH Regeneration system Solution A, 1.04% NADPH Regeneration system Solution B from BD Biosciences, 5% acetonitrile and 0.05% DMSO). These are then serially diluted 1:1 (160 μL to 160 μL co-factor mix) for a total of 10 points. A 10 μL aliquot of this final mixture is dispensed into 384 well assay plates and incubated for 10 minutes at 37° C. […] Assay plates are incubated at 37° C. (CYP1A2-15 min; CYP2C9-45 min; CYP2C19, 2D6 and 3A4-30 min) and read in a Tecan Safire 2 plate reader (CYP1A2, 2C19 and 3A4 409 ex/460 em; CYP2C9 and 2D6 409 ex/530 em). The signal versus compound concentration is used to determine the IC50. The enzymes and substrates for this assay are obtained from BD Biosciences.

Some results are limits rather than exact numbers.

CYP3A4(BQ), sequence (P08684 whole entry): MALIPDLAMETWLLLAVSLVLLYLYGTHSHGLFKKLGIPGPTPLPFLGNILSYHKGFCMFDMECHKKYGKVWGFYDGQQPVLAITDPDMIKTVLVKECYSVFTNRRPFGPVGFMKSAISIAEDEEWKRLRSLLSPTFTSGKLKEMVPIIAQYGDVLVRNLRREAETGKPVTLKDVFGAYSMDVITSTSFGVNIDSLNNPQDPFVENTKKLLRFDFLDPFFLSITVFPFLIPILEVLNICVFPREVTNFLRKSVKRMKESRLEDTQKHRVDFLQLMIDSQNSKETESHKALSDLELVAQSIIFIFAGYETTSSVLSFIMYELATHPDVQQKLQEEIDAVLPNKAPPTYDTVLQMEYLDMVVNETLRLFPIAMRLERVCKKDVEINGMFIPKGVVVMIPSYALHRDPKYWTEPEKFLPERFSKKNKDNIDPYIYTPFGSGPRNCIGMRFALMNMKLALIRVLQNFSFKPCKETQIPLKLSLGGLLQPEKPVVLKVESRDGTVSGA
c-Kit kinase, sequence (P10721 26-976): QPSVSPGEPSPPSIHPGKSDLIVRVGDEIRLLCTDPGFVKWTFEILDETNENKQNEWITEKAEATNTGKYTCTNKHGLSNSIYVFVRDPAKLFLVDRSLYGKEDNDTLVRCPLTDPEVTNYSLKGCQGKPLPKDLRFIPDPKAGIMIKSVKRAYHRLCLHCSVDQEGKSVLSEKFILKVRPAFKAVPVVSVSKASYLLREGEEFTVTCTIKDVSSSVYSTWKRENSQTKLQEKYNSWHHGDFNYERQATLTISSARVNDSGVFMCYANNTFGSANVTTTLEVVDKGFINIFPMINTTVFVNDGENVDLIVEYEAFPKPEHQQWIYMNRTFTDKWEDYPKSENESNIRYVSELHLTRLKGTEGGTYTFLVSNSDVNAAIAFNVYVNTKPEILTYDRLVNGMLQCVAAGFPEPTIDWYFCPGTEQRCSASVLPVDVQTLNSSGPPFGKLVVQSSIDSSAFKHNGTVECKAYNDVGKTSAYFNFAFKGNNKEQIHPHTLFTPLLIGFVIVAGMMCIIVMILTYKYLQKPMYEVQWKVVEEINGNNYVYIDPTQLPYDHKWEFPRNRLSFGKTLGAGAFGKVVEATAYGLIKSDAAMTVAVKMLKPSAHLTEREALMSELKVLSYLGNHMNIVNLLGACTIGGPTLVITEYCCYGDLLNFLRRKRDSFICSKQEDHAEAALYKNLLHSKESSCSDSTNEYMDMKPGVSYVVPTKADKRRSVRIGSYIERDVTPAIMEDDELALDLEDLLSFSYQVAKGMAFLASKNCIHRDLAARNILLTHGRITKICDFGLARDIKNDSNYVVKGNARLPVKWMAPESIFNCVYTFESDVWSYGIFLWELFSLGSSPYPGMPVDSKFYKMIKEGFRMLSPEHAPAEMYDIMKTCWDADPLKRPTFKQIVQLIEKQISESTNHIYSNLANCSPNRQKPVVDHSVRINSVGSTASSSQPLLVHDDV

In the case of `COc1ccc(Nc2ccc(C(=O)c3c[nH]c4ncnc(NC(C)(C)C)c34)c(F)n2)cn1` [Compound P-4055, [4-(tert-butylamino)-7H-pyrrolo[2,3-d]pyrimidin-5-yl]-[2-fluoro-6-[(6-methoxy-3-pyridyl)amino]-3-pyridyl]methanone], the half-inhibitory concentration (IC50) on c-Kit kinase was less than 1 µM. Further, in data set [1], the “turbidity threshold (L, M, H) 1.4” value was “M (moderate solubility if the threshold concentration is 31.3 μM to 250 μM)”; the “turbidity threshold (L, M, H) 4.5” value is listed as “M (moderate solubility if the threshold concentration is 31.3 μM to 250 μM)”; the “turbidity threshold (L, M, H) 6.8” value is on record as “L (low solubility if the threshold concentration is <31.3 μM)”; the “turbidity threshold (L, M, H) 7.4” value is “L (low solubility if the threshold concentration is <31.3 μM)”. Moreover, the IC50 on CYP3A4(BQ) was greater than 10 µM.
Regarding `COc1ccc(Nc2ccc(C(=O)c3c[nH]c4ncnc(NC5CCC(F)(F)CC5)c34)c(F)n2)cn1` [Compound P-4056, [4-[(4,4-difluorocyclohexyl)amino]-7H-pyrrolo[2,3-d]pyrimidin-5-yl]-[2-fluoro-6-[(6-methoxy-3-pyridyl)amino]-3-pyridyl]methanone], the IC50 at c-Kit kinase was less than 0.1 µM. In data set [1], the “turbidity threshold (L, M, H) 1.4” value is on record as “M (moderate solubility if the threshold concentration is 31.3 μM to 250 μM)”; the “turbidity threshold (L, M, H) 4.5” value is reported as “M (moderate solubility if the threshold concentration is 31.3 μM to 250 μM)”; the “turbidity threshold (L, M, H) 6.8” value is reported as “M (moderate solubility if the threshold concentration is 31.3 μM to 250 μM)”; the “turbidity threshold (L, M, H) 7.4” value is on record as “L (low solubility if the threshold concentration is <31.3 μM)”. In addition, the IC50 at CYP3A4(BQ) was greater than 10 µM.
As to `O=C(c1ccc(NC2CCC(F)(F)CC2)nc1Cl)c1c[nH]c2ncnc(NCC(F)(F)F)c12` [Compound P-4057, [2-chloro-6-[(4,4-difluorocyclohexyl)amino]-3-pyridyl]-[4-(2,2,2-trifluoroethylamino)-7H-pyrrolo[2,3-d]pyrimidin-5-yl]methanone], the concentration for half-maximal inhibition (IC50) at c-Kit kinase was greater than 1 µM. In data set [1], the “turbidity threshold (L, M, H) 1.4” value is on record as “L (low solubility if the threshold concentration is <31.3 μM)”; the “turbidity threshold (L, M, H) 4.5” value is recorded as “L (low solubility if the threshold concentration is <31.3 μM)”; the “turbidity threshold (L, M, H) 6.8” value is on record as “L (low solubility if the threshold concentration is <31.3 μM)”; the “turbidity threshold (L, M, H) 7.4” value was “M (moderate solubility if the threshold concentration is 31.3 μM to 250 μM)”. Further, on CYP3A4(BQ), the IC50 was greater than 10 µM.
Turning to `CNc1ncnc2[nH]cc(C(=O)c3ccc(NC4CCC(F)(F)CC4)nc3Cl)c12` [Compound P-4058, [2-chloro-6-[(4,4-difluorocyclohexyl)amino]-3-pyridyl]-[4-(methylamino)-7H-pyrrolo[2,3-d]pyrimidin-5-yl]methanone], on c-Kit kinase, the 50% inhibitory concentration (IC50) is greater than 1 µM. Besides, in data set [1], the “turbidity threshold (L, M, H) 1.4” value was “M (moderate solubility if the threshold concentration is 31.3 μM to 250 μM)”; the “turbidity threshold (L, M, H) 4.5” value is “L (low solubility if the threshold concentration is <31.3 μM)”; the “turbidity threshold (L, M, H) 6.8” value is listed as “L (low solubility if the threshold concentration is <31.3 μM)”; the “turbidity threshold (L, M, H) 7.4” value is “L (low solubility if the threshold concentration is <31.3 μM)”. Moreover, the half-inhibitory concentration (IC50) on CYP3A4(BQ) was greater than 10 µM.
For the molecule `O=C(c1ccc(NC2CCC(F)(F)CC2)nc1Cl)c1c[nH]c2ncnc(NC3CC3)c12` [Compound P-4059, [2-chloro-6-[(4,4-difluorocyclohexyl)amino]-3-pyridyl]-[4-(cyclopropylamino)-7H-pyrrolo[2,3-d]pyrimidin-5-yl]methanone], the IC50 at c-Kit kinase is less than 1 µM. Moreover, in data set [1], the “turbidity threshold (L, M, H) 1.4” value was “M (moderate solubility if the threshold concentration is 31.3 μM to 250 μM)”; the “turbidity threshold (L, M, H) 4.5” value is “L (low solubility if the threshold concentration is <31.3 μM)”; the “turbidity threshold (L, M, H) 6.8” value is given as “L (low solubility if the threshold concentration is <31.3 μM)”; the “turbidity threshold (L, M, H) 7.4” value is listed as “L (low solubility if the threshold concentration is <31.3 μM)”. Moreover, at CYP3A4(BQ), the IC50 was greater than 10 µM.
As for `CCNc1ncnc2[nH]cc(C(=O)c3ccc(Nc4ccc(C5CC5)nc4)nc3F)c12` [Compound P-4060, [6-[(6-cyclopropyl-3-pyridyl)amino]-2-fluoro-3-pyridyl]-[4-(ethylamino)-7H-pyrrolo[2,3-d]pyrimidin-5-yl]methanone], the IC50 at c-Kit kinase was less than 0.1 µM. For the same molecule, in data set [1], the “turbidity threshold (L, M, H) 1.4” value was “H (high solubility if the threshold concentration is >250 μm)”; the “turbidity threshold (L, M, H) 4.5” value was “M (moderate solubility if the threshold concentration is 31.3 μM to 250 μM)”; the “turbidity threshold (L, M, H) 6.8” value was “M (moderate solubility if the threshold concentration is 31.3 μM to 250 μM)”; the “turbidity threshold (L, M, H) 7.4” value is recorded as “M (moderate solubility if the threshold concentration is 31.3 μM to 250 μM)”. The IC50 at CYP3A4(BQ) is greater than 10 µM.
With `O=C(c1ccc(NC2CCC(F)(F)CC2)nc1F)c1c[nH]c2ncnc(NCC(F)(F)F)c12` [Compound P-4061, [6-[(4,4-difluorocyclohexyl)amino]-2-fluoro-3-pyridyl]-[4-(2,2,2-trifluoroethylamino)-7H-pyrrolo[2,3-d]pyrimidin-5-yl]methanone], the IC50 on c-Kit kinase is greater than 1 µM. Moreover, in data set [1], the “turbidity threshold (L, M, H) 1.4” value was “M (moderate solubility if the threshold concentration is 31.3 μM to 250 μM)”; the “turbidity threshold (L, M, H) 4.5” value was “L (low solubility if the threshold concentration is <31.3 μM)”; the “turbidity threshold (L, M, H) 6.8” value is “M (moderate solubility if the threshold concentration is 31.3 μM to 250 μM)”; the “turbidity threshold (L, M, H) 7.4” value is “M (moderate solubility if the threshold concentration is 31.3 μM to 250 μM)”. In addition, the IC50 at CYP3A4(BQ) was greater than 10 µM.
In the case of `O=C(c1ccc(NC2CCC(F)(F)CC2)nc1F)c1c[nH]c2ncnc(NC3CC3)c12` [Compound P-4062, [4-(cyclopropylamino)-7H-pyrrolo[2,3-d]pyrimidin-5-yl]-[6-[(4,4-difluorocyclohexyl)amino]-2-fluoro-3-pyridyl]methanone], the IC50 at c-Kit kinase is less than 0.1 µM. For the same molecule, in data set [1], the “turbidity threshold (L, M, H) 1.4” value is reported as “H (high solubility if the threshold concentration is >250 μm)”; the “turbidity threshold (L, M, H) 4.5” value is recorded as “L (low solubility if the threshold concentration is <31.3 μM)”; the “turbidity threshold (L, M, H) 6.8” value is reported as “M (moderate solubility if the threshold concentration is 31.3 μM to 250 μM)”; the “turbidity threshold (L, M, H) 7.4” value is reported as “L (low solubility if the threshold concentration is <31.3 μM)”. At CYP3A4(BQ), the IC50 is greater than 10 µM.

In general, IC50 refers to the point on the concentration scale where inhibition reaches its midpoint.
